Results reported in patent publication US12509457B2, “Bicyclic nitrogen containing heterocycles as inhibitors of salt-induced kinase SIK2” (priority 2019, dated 2025).
Where two headings read alike, the source gives them in different places.

Assays:
Format in all cases: biochemical
SIK2 = SIK2 (Homo sapiens, UniProt Q9H0K1); experiment: SIK2 kinase assay, IMAP fluorescence polarization
SIK1 = SIK1 (Homo sapiens, UniProt P57059); experiment: SIK1 kinase assay, IMAP fluorescence polarization
Src = Src (Homo sapiens, UniProt P12931); experiment: Src kinase assay, IMAP fluorescence polarization
Sequence of Src (P12931 whole entry): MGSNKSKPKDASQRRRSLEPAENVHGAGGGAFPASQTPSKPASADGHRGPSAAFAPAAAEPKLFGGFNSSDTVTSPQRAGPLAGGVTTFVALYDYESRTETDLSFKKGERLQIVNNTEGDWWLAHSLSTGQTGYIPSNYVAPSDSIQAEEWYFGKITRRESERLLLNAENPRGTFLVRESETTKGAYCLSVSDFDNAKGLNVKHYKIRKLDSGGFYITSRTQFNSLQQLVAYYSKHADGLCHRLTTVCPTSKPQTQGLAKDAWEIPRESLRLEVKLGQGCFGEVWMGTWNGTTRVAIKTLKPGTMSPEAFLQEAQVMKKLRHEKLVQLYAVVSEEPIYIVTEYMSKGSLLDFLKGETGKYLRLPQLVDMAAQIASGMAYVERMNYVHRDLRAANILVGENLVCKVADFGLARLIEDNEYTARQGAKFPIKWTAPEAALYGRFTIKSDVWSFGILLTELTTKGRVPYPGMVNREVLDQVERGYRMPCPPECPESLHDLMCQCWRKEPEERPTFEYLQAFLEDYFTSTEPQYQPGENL

Abl = Abl (Homo sapiens, UniProt P00519); experiment: Abl kinase assay, IMAP fluorescence polarization
Sequence of Abl (P00519 whole entry): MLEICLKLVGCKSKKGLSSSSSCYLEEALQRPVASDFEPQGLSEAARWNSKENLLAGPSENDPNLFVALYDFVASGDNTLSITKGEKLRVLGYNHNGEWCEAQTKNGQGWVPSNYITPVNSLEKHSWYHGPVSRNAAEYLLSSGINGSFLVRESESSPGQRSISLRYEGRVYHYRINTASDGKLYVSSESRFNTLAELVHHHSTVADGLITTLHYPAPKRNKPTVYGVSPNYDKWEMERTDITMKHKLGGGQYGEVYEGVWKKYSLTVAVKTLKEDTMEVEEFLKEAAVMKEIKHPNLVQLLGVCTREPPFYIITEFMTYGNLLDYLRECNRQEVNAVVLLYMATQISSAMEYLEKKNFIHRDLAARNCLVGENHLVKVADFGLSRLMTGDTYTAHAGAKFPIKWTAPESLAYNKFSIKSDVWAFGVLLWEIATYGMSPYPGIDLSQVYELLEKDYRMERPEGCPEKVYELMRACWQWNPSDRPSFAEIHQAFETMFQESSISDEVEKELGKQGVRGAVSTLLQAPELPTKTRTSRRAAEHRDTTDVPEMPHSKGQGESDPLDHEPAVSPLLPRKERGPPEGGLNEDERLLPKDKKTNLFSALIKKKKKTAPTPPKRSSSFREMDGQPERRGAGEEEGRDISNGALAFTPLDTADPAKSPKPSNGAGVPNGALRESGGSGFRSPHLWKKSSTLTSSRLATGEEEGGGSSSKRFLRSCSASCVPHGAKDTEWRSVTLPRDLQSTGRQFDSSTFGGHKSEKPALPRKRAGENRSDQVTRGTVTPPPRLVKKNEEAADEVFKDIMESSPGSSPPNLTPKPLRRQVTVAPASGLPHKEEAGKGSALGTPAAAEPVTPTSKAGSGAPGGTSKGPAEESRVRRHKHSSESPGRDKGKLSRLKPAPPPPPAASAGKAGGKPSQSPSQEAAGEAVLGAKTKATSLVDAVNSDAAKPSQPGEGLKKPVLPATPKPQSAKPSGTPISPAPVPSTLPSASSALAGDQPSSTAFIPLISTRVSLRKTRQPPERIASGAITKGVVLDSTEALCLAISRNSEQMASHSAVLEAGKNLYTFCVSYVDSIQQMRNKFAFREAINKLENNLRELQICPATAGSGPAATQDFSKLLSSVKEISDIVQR

SIK3 = SIK3 (Homo sapiens, UniProt Q9Y2K2); experiment: SIK3 kinase assay, IMAP fluorescence polarization
Sequence of SIK3 (Q9Y2K2 whole entry): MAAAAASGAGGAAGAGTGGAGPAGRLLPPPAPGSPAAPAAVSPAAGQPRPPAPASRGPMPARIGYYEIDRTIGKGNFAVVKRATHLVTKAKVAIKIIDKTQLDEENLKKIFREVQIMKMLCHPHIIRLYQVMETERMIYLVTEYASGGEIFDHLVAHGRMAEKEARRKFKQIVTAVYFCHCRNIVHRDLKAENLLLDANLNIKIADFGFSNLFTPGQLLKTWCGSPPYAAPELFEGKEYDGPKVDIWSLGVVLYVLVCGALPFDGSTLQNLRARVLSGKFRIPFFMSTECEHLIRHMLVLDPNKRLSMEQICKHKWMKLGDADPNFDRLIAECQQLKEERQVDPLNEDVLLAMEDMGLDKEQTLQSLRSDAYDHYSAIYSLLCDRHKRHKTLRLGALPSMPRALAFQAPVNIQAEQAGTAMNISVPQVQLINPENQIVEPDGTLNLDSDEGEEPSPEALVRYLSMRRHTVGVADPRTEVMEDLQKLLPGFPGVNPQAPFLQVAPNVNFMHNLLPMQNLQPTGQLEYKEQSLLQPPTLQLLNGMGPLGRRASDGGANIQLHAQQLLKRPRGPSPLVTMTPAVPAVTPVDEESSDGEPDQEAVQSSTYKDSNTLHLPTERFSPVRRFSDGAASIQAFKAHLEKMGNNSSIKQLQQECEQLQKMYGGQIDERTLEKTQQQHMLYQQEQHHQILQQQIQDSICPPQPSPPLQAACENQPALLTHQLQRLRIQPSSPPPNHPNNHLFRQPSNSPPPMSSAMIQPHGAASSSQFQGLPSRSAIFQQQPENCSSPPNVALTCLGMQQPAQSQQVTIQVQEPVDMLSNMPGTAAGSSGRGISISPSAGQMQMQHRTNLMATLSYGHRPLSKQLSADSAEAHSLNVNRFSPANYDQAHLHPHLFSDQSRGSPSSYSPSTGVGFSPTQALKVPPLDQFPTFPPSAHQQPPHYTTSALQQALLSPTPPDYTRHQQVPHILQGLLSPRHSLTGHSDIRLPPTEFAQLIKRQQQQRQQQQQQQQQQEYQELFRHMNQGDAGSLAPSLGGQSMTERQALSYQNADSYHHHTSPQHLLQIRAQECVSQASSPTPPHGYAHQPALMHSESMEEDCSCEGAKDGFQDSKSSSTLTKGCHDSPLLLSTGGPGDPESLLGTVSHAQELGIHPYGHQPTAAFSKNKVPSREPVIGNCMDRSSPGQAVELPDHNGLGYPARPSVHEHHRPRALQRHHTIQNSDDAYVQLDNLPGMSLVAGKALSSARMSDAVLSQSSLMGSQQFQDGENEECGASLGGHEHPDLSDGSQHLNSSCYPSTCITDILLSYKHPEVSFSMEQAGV

EPHA2 = EPHA2 (Homo sapiens, UniProt P29317); experiment: EPHA2 kinase assay, IMAP fluorescence polarization
[1] = 50 or 100 μM ATP, average, read-out: SIK2-AVERAGE Ki
[2] = 50 or 100 μM ATP, average, read-out: SIK1-AVERAGE Ki
[3] = 50 or 100 μM ATP, average, read-out: Src-AVERAGE Ki
[4] = 50 or 100 μM ATP, average, read-out: Abl-AVERAGE Ki
[5] = 50 or 100 μM ATP, average, read-out: SIK3-AVERAGE Ki

Sequence of SIK2 (Q9H0K1 whole entry): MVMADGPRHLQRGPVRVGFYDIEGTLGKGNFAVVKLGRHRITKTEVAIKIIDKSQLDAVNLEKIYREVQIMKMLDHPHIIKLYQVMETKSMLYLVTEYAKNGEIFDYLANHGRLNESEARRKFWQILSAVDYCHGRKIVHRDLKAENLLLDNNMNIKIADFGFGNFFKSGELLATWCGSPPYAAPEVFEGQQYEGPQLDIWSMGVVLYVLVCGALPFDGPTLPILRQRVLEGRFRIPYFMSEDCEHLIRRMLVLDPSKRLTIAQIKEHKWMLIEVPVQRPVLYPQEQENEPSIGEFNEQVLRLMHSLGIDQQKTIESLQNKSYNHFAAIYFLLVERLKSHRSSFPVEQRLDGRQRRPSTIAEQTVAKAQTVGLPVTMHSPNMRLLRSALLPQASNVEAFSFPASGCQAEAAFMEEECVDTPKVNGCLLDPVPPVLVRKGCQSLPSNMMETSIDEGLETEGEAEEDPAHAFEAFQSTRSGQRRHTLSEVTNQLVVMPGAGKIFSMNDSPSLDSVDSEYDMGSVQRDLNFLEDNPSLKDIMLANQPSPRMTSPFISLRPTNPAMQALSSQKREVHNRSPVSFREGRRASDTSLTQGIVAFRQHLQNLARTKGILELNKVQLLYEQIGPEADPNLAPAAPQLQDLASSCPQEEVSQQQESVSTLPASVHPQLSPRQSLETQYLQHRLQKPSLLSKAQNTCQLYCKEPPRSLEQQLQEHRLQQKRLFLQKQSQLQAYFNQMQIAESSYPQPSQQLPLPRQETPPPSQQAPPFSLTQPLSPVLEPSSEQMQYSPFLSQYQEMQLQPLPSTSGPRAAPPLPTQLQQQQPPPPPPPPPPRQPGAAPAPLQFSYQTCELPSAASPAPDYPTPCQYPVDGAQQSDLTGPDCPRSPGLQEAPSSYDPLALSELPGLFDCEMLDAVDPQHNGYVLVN
Sequence of SIK1 (P57059 whole entry): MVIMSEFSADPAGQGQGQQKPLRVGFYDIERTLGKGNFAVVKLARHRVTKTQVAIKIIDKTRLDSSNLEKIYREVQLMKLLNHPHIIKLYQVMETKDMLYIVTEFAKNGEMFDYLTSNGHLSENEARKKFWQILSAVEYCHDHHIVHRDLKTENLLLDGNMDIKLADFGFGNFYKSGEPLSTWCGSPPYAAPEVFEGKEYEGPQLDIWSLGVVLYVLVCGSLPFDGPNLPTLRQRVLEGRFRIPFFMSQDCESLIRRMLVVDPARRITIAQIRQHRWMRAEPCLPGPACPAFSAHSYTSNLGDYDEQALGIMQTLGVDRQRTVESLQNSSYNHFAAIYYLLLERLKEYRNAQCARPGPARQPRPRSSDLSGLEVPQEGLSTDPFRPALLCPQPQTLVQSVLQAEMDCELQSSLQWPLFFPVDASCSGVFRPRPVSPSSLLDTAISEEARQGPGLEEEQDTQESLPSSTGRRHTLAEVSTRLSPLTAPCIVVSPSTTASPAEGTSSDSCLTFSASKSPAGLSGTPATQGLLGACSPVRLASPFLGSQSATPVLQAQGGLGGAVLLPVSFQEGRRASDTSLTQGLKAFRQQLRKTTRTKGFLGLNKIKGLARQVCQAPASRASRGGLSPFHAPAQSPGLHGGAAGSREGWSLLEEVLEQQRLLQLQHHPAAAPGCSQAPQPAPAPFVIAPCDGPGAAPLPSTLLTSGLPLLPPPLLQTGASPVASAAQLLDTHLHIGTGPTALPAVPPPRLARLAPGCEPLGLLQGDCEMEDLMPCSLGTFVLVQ

| Structure (SMILES) | Ki (SIK2) | Ki (SIK1) | Ki (Src) | Ki (Abl) | Ki (SIK3) | Ki (SIK2; [1]) | Ki (SIK1; [2]) | Ki (Src; [3]) | Ki (Abl; [4]) | Ki (EPHA2; 50 or 100 μM ATP, average) | Ki (SIK3; [5]) | Ki (EPHA2) |
| --- | --- | --- | --- | --- | --- | --- | --- | --- | --- | --- | --- | --- |
| Cc1cccc(Cl)c1N1Cc2cncnc2N(C2CCN(C)CC2)C1=O [Example 28, 3-(2-chloro-6-methyl-phenyl)-1-(1-methyl-4-piperidyl)-4H-pyrimido[4,5-d]pyrimidin-2-one] | 213 nM | 397 nM | > 100000 nM | 6220 nM | 2220 nM | – | – | – | – | – | – | – |
| Cc1cccc(F)c1N1Cc2cnc(N)cc2N([C@H]2CCC[C@H](N)C2)C1=O (relative stereo) [Example 55, 7-amino-1-[(trans)-3-aminocyclohexyl]-3-(2-fluoro-6-methyl-phenyl)-4H-pyrido[4,3-d]pyrimidin-2-one] | – | – | – | – | – | 0.364 nM | 1.25 nM | 33 nM | 14.3 nM | 7.16 nM | 4.71 nM | – |
| Cc1cccc(F)c1N1Cc2cnc(N)nc2N([C@H]2CCCNCC2)C1=O [Example 69, 7-amino-1-[(4S)-azepan-4-yl]-3-(2-fluoro-6-methyl-phenyl)-4H-pyrimido[4,5-d]pyrimidin-2-one] | – | – | – | – | – | 0.0997 nM | 0.407 nM | 44.2 nM | 19.7 nM | 14.7 nM | 0.926 nM | – |
| Cc1cccc(F)c1N1Cc2cnc(N)cc2N([C@H]2CC[C@H](N(C)C)CC2)C1=O [Example 59, trans-7-Amino-1-[4-(dimethylamino)cyclohexyl]-3-(2-fluoro-6-methyl-phenyl)-4H-pyrido[4,3-d]pyrimidin-2-one] | – | – | – | – | – | 0.1 nM | 0.292 nM | 29.7 nM | 7.31 nM | 123 nM | 0.143 nM | – |
| Cc1cccc(F)c1N1Cc2cnc(N)cc2N([C@H]2CCC[C@@H](N(C)C)C2)C1=O (relative stereo) [Example 43, 7-amino-1-[cis-3-(dimethylamino)cyclohexyl]-3-(2-fluoro-6-methyl-phenyl)-4H-pyrido[4,3-d]pyrimidin-2-one] | – | – | – | – | – | 1.57 nM | 1.96 nM | 71.3 nM | 25.3 nM | 39.3 nM | 13.4 nM | – |
| Cc1cccc(F)c1N1Cc2cnc(N)nc2N([C@@H]2CCN(C)C2)C1=O [Example 31, 7-amino-3-(2-fluoro-6-methyl-phenyl)-1-[(3R)-1-methylpyrrolidin-3-yl]-4H-pyrimido[4,5-d]pyrimidin-2-one] | – | – | – | – | – | 4.79 nM | 8.28 nM | > 10000 nM | 522 nM | – | 62.6 nM | 228 nM |
| Cc1cccc(F)c1N1Cc2cnc(N)cc2N(C2CCN(C)CC2)C1=O [Example 3, 7-Amino-3-(2-fluoro-6-methyl-phenyl)-1-(1-methyl-4-piperidyl)-4H-pyrido[4,3-d]pyrimidin-2-one] | 0.239 nM | 0.632 nM | 387 nM | 122 nM | 0.975 nM | – | – | – | – | – | – | – |
| CCN1CCC(N2C(=O)N(c3c(C)cccc3F)Cc3cnccc32)CC1 [Example 25, 1-(1-ethyl-4-piperidyl)-3-(2-fluoro-6-methyl-phenyl)-4H-pyrido[4,3-d]pyrimidin-2-one] | 17 nM | 33.2 nM | 2640 nM | > 10000 nM | 36.3 nM | – | – | – | – | – | – | – |
| Cc1cccc(Cl)c1N1Cc2cnc(N)cc2N(C2CCNCC2)C1=O [Example 6, 7-amino-3-(2-chloro-6-methyl-phenyl)-1-(4-piperidyl)-4H-pyrido[4,3-d]pyrimidin-2-one] | 3.09 nM | 3.35 nM | 216 nM | 108 nM | 10.8 nM | – | – | – | – | – | – | – |
| Cc1cccc(F)c1N1Cc2cnc(N(C)C)cc2N([C@H]2CCC[C@@H](N(C)C)C2)C1=O (relative stereo) [Example 44, 7-(dimethylamino)-1-[cis-3-(dimethylamino)cyclohexyl]-3-(2-fluoro-6-methyl-phenyl)-4H-pyrido[4,3-d]pyrimidin-2-one] | – | – | – | – | – | 123 nM | 263 nM | > 10000 nM | – | 6410 nM | 1370 nM | – |
| CCN1CCC(N2C(=O)N(c3c(C)cccc3Cl)Cc3cncnc32)CC1 [Example 29, 3-(2-chloro-6-methyl-phenyl)-1-(1-ethyl-4-piperidyl)-4H-pyrimido[4,5-d]pyrimidin-2-one] | 128 nM | 207 nM | > 100000 nM | 6490 nM | 1700 nM | – | – | – | – | – | – | – |
| Cc1cccc(Cl)c1N1Cc2cnccc2N(C2CCNCC2)C1=O [Example 66, 3-(2-chloro-6-methyl-phenyl)-1-(4-piperidyl)-4H-pyrido[4,3-d]pyrimidin-2-one] | 13.2 nM | 10.2 nM | 436 nM | 621 nM | 98.8 nM | – | – | – | – | – | – | – |
| Cc1cccc(Cl)c1N1Cc2cncnc2N(C2CCNCC2)C1=O [Example 17, 3-(2-chloro-6-methyl-phenyl)-1-(4-piperidyl)-4H-pyrimido[4,5-d]pyrimidin-2-one] | 128 nM | 273 nM | > 100000 nM | 3950 nM | 1400 nM | – | – | – | – | – | – | – |
| Cc1cccc(F)c1N1Cc2cnccc2N(C2CCNCC2)C1=O [Example 18, 3-(2-Fluoro-6-methyl-phenyl)-1-(4-piperidyl)-4H-pyrido[4,3-d]pyrimidin-2-one] | 8.2 nM | 12 nM | 1900 nM | 512 nM | 21.2 nM | – | – | – | – | – | – | – |
| Cc1cccc(Cl)c1N1Cc2cnccc2N(C2CCN(C)CC2)C1=O [Example 32, 3-(2-chloro-6-methyl-phenyl)-1-(1-methyl-4-piperidyl)-4H-pyrido[4,3-d]pyrimidin-2-one] | 19.6 nM | 14.7 nM | 514 nM | > 10000 nM | 144 nM | – | – | – | – | – | – | – |
| Cc1cccc(F)c1N1Cc2cncnc2N(C2CCN(C)CC2)C1=O [Example 26, 3-(2-fluoro-6-methyl-phenyl)-1-(1-methyl-4-piperidyl)-4H-pyrimido[4,5-d]pyrimidin-2-one] | 192 nM | 586 nM | > 100000 nM | > 100000 nM | 895 nM | – | – | – | – | – | – | – |
| Cc1cccc(F)c1N1Cc2cnc(N)nc2N(C2CCNCC2)C1=O [Example 11, 7-Amino-3-(2-fluoro-6-methyl-phenyl)-1-(4-piperidyl)-4H-pyrimido[4,5-d]pyrimidin-2-one] | 0.481 nM | 2.36 nM | 464 nM | 171 nM | 4.44 nM | – | – | – | – | – | – | – |
| Cc1cccc(F)c1N1Cc2cnc(N)nc2N(C2CCN(C)CC2)C1=O [Example 19, 7-Amino-3-(2-fluoro-6-methyl-phenyl)-1-(1-methyl-4-piperidyl)-4H-pyrimido[4,5-d]pyrimidin-2-one] | 0.739 nM | 9.73 nM | > 1000 nM | > 1000 nM | 4.12 nM | – | – | – | – | – | – | – |
| Cc1cccc(F)c1N1Cc2cnccc2N(C2CCN(C)CC2)C1=O [Example 24, 3-(2-fluoro-6-methyl-phenyl)-1-(1-methyl-4-piperidyl)-4H-pyrido[4,3-d]pyrimidin-2-one] | 8.97 nM | 20.6 nM | 2250 nM | > 10000 nM | 24 nM | – | – | – | – | – | – | – |
| Cc1cccc(Cl)c1N1Cc2cnc(N)cc2N(C2CCN(C)CC2)C1=O [Example 7, 7-amino-3-(2-chloro-6-methyl-phenyl)-1-(1-methyl-4-piperidyl)-4H-pyrido[4,3-d]pyrimidin-2-one] | 2.49 nM | 3.21 nM | 263 nM | 271 nM | 9.46 nM | – | – | – | – | – | – | – |
| Cc1cccc(F)c1N1Cc2cncnc2N(C2CCNCC2)C1=O [Example 16, 3-(2-fluoro-6-methyl-phenyl)-1-(4-piperidyl)-4H-pyrimido[4,5-d]pyrimidin-2-one] | 92.2 nM | 223 nM | > 100000 nM | 4180 nM | 489 nM | – | – | – | – | – | – | – |
| Cc1cccc(F)c1N1Cc2cnc(N)cc2N(C2CCNCC2)C1=O [Example 1, 7-Amino-3-(2-fluoro-6-methyl-phenyl)-1-(4-piperidyl)-4H-pyrido[4,3-d]pyrimidin-2-one] | 0.248 nM | 1.68 nM | > 1000 nM | > 1000 nM | 1.79 nM | – | – | – | – | – | – | – |
| Cc1cccc(Cl)c1N1Cc2cnc(N)nc2N(C2CCN(C)CC2)C1=O [Example 22, 7-amino-3-(2-chloro-6-methyl-phenyl)-1-(1-methyl-4-piperidyl)-4H-pyrimido[4,5-d]pyrimidin-2-one] | 3.07 nM | 10.6 nM | 265 nM | > 1000 nM | 27.8 nM | – | – | – | – | – | – | – |
| CCN1CCC(N2C(=O)N(c3c(C)cccc3F)Cc3cncnc32)CC1 [Example 27, 1-(1-ethyl-4-piperidyl)-3-(2-fluoro-6-methyl-phenyl)-4H-pyrimido[4,5-d]pyrimidin-2-one] | 210 nM | 635 nM | > 100000 nM | 4190 nM | 956 nM | – | – | – | – | – | – | – |
| CCN1CCC(N2C(=O)N(c3c(C)cccc3Cl)Cc3cnccc32)CC1 [Example 33, 3-(2-chloro-6-methyl-phenyl)-1-(1-ethyl-4-piperidyl)-4H-pyrido[4,3-d]pyrimidin-2-one] | 20.3 nM | 34.1 nM | 1540 nM | 4950 nM | 213 nM | – | – | – | – | – | – | – |
| CCN1CCC(N2C(=O)N(c3c(C)cccc3F)Cc3cnc(N)nc32)CC1 [Example 20, 7-amino-1-(1-ethyl-4-piperidyl)-3-(2-fluoro-6-methyl-phenyl)-4H-pyrimido[4,5-d]pyrimidin-2-one] | 0.803 nM | 6.61 nM | > 1000 nM | > 1000 nM | 7.18 nM | – | – | – | – | – | – | – |
| Cc1cccc(Cl)c1N1Cc2cnc(N)nc2N(C2CCNCC2)C1=O [Example 15, 7-Amino-3-(2-chloro-6-methyl-phenyl)-1-(4-piperidyl)-4H-pyrimido[4,5-d]pyrimidin-2-one] | 1.63 nM | 6.23 nM | 138 nM | > 1000 nM | 18.7 nM | – | – | – | – | – | – | – |
